Assay results reported in PubChem BioAssay AID248 (DTP/NCI, 2004).
“And” between values parts separate entries of the source, which are not always exact repeats. Equal values may be shown once. Toxic doses and inconclusive results are not listed. Rule as the data show it: active = T/C of 150% or more; inactive = T/C below 125%.

Test system: L1210 leukemia ip in BDF1 mice, survival T/C
Experiment: NCI In Vivo Anticancer Drug Screen. Data for tumor model L1210 Leukemia (intraperitoneal) in B6D2F1 (BDF1) mice
Conditions: endpoint: mean survival time, higher = longer survival
Method in brief: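 Mice bearing the transplanted tumor received compound or vehicle. Survival of the treated group was divided by that of the vehicle-treated control group to give the ratio.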

[1] = dose: 100.0 mg/kg/injection, schedule: Q01DX009 (ip), vehicle: Klucel (hydroxypropylcellulose) (HPC)
[2] = dose: 100.0 mg/kg/injection, schedule: Q04DX003 (ip), vehicle: Klucel (hydroxypropylcellulose) (HPC)
[3] = dose: 200.0 mg/kg/injection, schedule: Q01DX009 (ip), vehicle: Klucel (hydroxypropylcellulose) (HPC)
[4] = dose: 200.0 mg/kg/injection, schedule: Q04DX003 (ip), vehicle: Klucel (hydroxypropylcellulose) (HPC)
[5] = dose: 400.0 mg/kg/injection, schedule: Q01DX009 (ip), vehicle: Klucel (hydroxypropylcellulose) (HPC)
[6] = dose: 400.0 mg/kg/injection, schedule: Q04DX003 (ip), vehicle: Klucel (hydroxypropylcellulose) (HPC)
[7] = dose: 50.0 mg/kg/injection, schedule: Q01DX009 (ip), vehicle: saline
[8] = dose: 100.0 mg/kg/injection, schedule: Q01DX001 (ip), vehicle: other
[9] = dose: 200.0 mg/kg/injection, schedule: Q01DX001 (ip), vehicle: other
[10] = dose: 400.0 mg/kg/injection, schedule: Q01DX001 (ip), vehicle: other
[11] = dose: 50.0 mg/kg/injection, schedule: Q01DX009 (ip), vehicle: Klucel (hydroxypropylcellulose) (HPC)
[12] = dose: 100.0 mg/kg/injection, schedule: Q04DX003 (ip), vehicle: saline
[13] = dose: 100.0 mg/kg/injection, schedule: Q04DX003 (ip), vehicle: saline with Tween-80
[14] = dose: 200.0 mg/kg/injection, schedule: Q04DX003 (ip), vehicle: saline with Tween-80
[15] = dose: 100.0 mg/kg/injection, schedule: Q01DX009 (ip), vehicle: saline

Measured: T/C

O=C(CC(O)C(Cl)(Cl)Cl)CC(O)C(Cl)(Cl)Cl (centres undefined)
inactive: dose: 100.0 mg/kg/injection, schedule: Q04DX002 (ip), vehicle: saline 96 % of control | dose: 200.0 mg/kg/injection, schedule: Q04DX002 (ip), vehicle: saline 107 % of control

Nc1cc(F)c([N+](=O)[O-])cc1[N+](=O)[O-]
inactive: dose: 8.0 mg/kg/injection, schedule: Q01DX015 (ip), vehicle: carboxymethylcellulose (CMC) 89 % of control | dose: 16.0 mg/kg/injection, schedule: Q01DX015 (ip), vehicle: carboxymethylcellulose (CMC) 91 % of control | dose: 32.0 mg/kg/injection, schedule: Q01DX015 (ip), vehicle: carboxymethylcellulose (CMC) 102 % of control

CCCCCCCC[Si](Br)(CCCCCCCC)CCCCCCCC
inactive: dose: 75.0 mg/kg/injection, schedule: Q01DX001 (ip), vehicle: acetone 98 % of control | dose: 150.0 mg/kg/injection, schedule: Q01DX001 (ip), vehicle: acetone 93 % of control | dose: 300.0 mg/kg/injection, schedule: Q01DX001 (ip), vehicle: acetone 96 % of control

CC(=O)CC(=O)NC1CCCCCC1
inactive: [1] 92 % of control | [2] 100 % of control | [3] 103 % of control | [4] 100 % of control | [5] 97 % of control | [6] 96 % of control

CC(=O)Nc1ccc(Cc2ccc(N)cc2)cc1
inactive: dose: 100.0 mg/kg/injection, schedule: Q01DX001 (ip), vehicle: saline 108 % of control | dose: 200.0 mg/kg/injection, schedule: Q01DX001 (ip), vehicle: saline 104 % of control

CCCCN(CCCC)CCP(=O)(OCC)OCC
inactive: dose: 100.0 mg/kg/injection, schedule: Q04DX002 (ip), vehicle: saline with Tween-80 97 % of control | dose: 200.0 mg/kg/injection, schedule: Q04DX002 (ip), vehicle: saline with Tween-80 105 % of control

NC(=O)NC(=O)COc1ccc(Cl)cc1Cl
inactive: dose: 100.0 mg/kg/injection, schedule: Q04DX002 (ip), vehicle: saline + alcohol 96 % of control | dose: 200.0 mg/kg/injection, schedule: Q04DX002 (ip), vehicle: saline + alcohol 103 % of control

CC(=O)c1ccc(OC(=O)Nc2cc([N+](=O)[O-])ccc2F)cc1
inactive: [2] 98 % of control | [4] 101 % of control | [6] 95 % of control

CN(CC#N)CC#N
inactive: dose: 25.0 mg/kg/injection, schedule: Q01DX009 (ip), vehicle: saline 105 % of control | [7] 95 % of control

CC(C)CCC[C@@H](C)[C@H]1CC[C@H]2[C@@H]3C[C@@H](Br)[C@@]4(Br)C[C@@H](Cl)CC[C@]4(C)[C@H]3CC[C@]12C
inactive: dose: 50.0 mg/kg/injection, schedule: Q01DX001 (ip), vehicle: other 102 % of control | [8] 107 % of control | [9] 96 % of control | [10] 96 % of control

CCOC(=O)C1(C(=O)OCC)CCC(OCC)N1C(=O)c1ccccc1[N+](=O)[O-] (centres undefined)
inactive: dose: 25.0 mg/kg/injection, schedule: Q04DX003 (ip), vehicle: Klucel (hydroxypropylcellulose) (HPC) 94 % of control | dose: 50.0 mg/kg/injection, schedule: Q04DX003 (ip), vehicle: Klucel (hydroxypropylcellulose) (HPC) 99 % of control | [2] 89 % of control

CCCCN(CCCC)CCCOc1cc(C)ccc1C(C)C
inactive: dose: 3.0 mg/kg/injection, schedule: Q04DX003 (ip), vehicle: saline 97 % of control | dose: 6.0 mg/kg/injection, schedule: Q04DX003 (ip), vehicle: saline 105 % of control and 106 % of control | dose: 12.0 mg/kg/injection, schedule: Q01DX009 (ip), vehicle: Klucel (hydroxypropylcellulose) (HPC) 102 % of control | dose: 12.0 mg/kg/injection, schedule: Q04DX003 (ip), vehicle: saline 95 % of control and 107 % of control | dose: 25.0 mg/kg/injection, schedule: Q01DX009 (ip), vehicle: Klucel (hydroxypropylcellulose) (HPC) 93 % of control | dose: 25.0 mg/kg/injection, schedule: Q04DX003 (ip), vehicle: saline 97 % of control and 98 % of control and 105 % of control | [11] 109 % of control | [12] 109 % of control

COc1cc(OC)c(OC)cc1/C=C/c1cc[n+](C)c2ccccc12
inactive: dose: 25.0 mg/kg/injection, schedule: Q04DX002 (ip), vehicle: Klucel (hydroxypropylcellulose) (HPC) 95 % of control | dose: 50.0 mg/kg/injection, schedule: Q04DX002 (ip), vehicle: Klucel (hydroxypropylcellulose) (HPC) 101 % of control | dose: 100.0 mg/kg/injection, schedule: Q04DX002 (ip), vehicle: Klucel (hydroxypropylcellulose) (HPC) 109 % of control and 111 % of control

Cc1cnc2c(N)[nH]nc2n1
inactive: [2] 106 % of control | [3] 104 % of control | [4] 96 % of control | [5] 100 % of control | [6] 102 % of control

O=[N+]([O-])c1ccc([N+](=O)[O-])c(Cl)c1
inactive: [11] 101 % of control | [1] 95 % of control | [13] 97 % of control | [14] 86 % of control

NC1C(O)C(N)C(O)C(O)C1O (centres undefined)
inactive: dose: 100.0 mg/kg/injection, schedule: Q04DX003 (ip), vehicle: saline sonified 97 % of control | dose: 200.0 mg/kg/injection, schedule: Q04DX003 (ip), vehicle: saline sonified 97 % of control | dose: 400.0 mg/kg/injection, schedule: Q04DX003 (ip), vehicle: saline sonified 95 % of control

CCNCCNC
inactive: [7] 96 % of control | [15] 101 % of control | [12] 108 % of control | dose: 200.0 mg/kg/injection, schedule: Q04DX003 (ip), vehicle: saline 101 % of control

C=C(NC(C)=O)C(O)c1ccc([N+](=O)[O-])cc1 (centres undefined)
inactive: dose: 50.0 mg/kg/injection, schedule: Q01DX001 (ip), vehicle: carboxymethylcellulose (CMC) 96 % of control | dose: 100.0 mg/kg/injection, schedule: Q01DX001 (ip), vehicle: carboxymethylcellulose (CMC) 100 % of control and 90 % of control | [1] 95 % of control | [2] 101 % of control | dose: 200.0 mg/kg/injection, schedule: Q01DX001 (ip), vehicle: carboxymethylcellulose (CMC) 94 % of control and 97 % of control | [3] 93 % of control | [4] 98 % of control | dose: 400.0 mg/kg/injection, schedule: Q01DX001 (ip), vehicle: carboxymethylcellulose (CMC) 100 % of control and 87 % of control | [5] 95 % of control | [6] 95 % of control

C/C=C/CCCCCCCC(=O)OCCCC
inactive: dose: 100.0 mg/kg/injection, schedule: Q01DX009 (ip), vehicle: saline with Tween-80 101 % of control | [13] 103 % of control | dose: 200.0 mg/kg/injection, schedule: Q01DX009 (ip), vehicle: saline with Tween-80 107 % of control | [14] 97 % of control | dose: 400.0 mg/kg/injection, schedule: Q01DX009 (ip), vehicle: saline with Tween-80 95 % of control | dose: 400.0 mg/kg/injection, schedule: Q04DX003 (ip), vehicle: saline with Tween-80 98 % of control

CC(CCC(=O)O)(c1cc(Br)c(O)c(Br)c1)c1cc(Br)c(O)c(Br)c1
inactive: [15] 93 % of control | dose: 100.0 mg/kg/injection, schedule: Q04DX003 (ip), vehicle: other 102 % of control | dose: 200.0 mg/kg/injection, schedule: Q01DX009 (ip), vehicle: saline 95 % of control | dose: 200.0 mg/kg/injection, schedule: Q04DX003 (ip), vehicle: other 102 % of control | dose: 400.0 mg/kg/injection, schedule: Q01DX009 (ip), vehicle: saline 87 % of control | dose: 400.0 mg/kg/injection, schedule: Q04DX003 (ip), vehicle: other 109 % of control

Cc1cc(N(CCCl)CCCl)ccc1C=Nc1cccc2ncccc12
inactive: [8] 95 % of control | [9] 97 % of control | [10] 93 % of control

CCOP(=O)(/C(C#N)=C/c1ccccc1)c1ccccc1 (centres undefined)
inactive: [11] 95 % of control | dose: 75.0 mg/kg/injection, schedule: Q01DX009 (ip), vehicle: Klucel (hydroxypropylcellulose) (HPC) 96 % of control | dose: 75.0 mg/kg/injection, schedule: Q04DX003 (ip), vehicle: Klucel (hydroxypropylcellulose) (HPC) 101 % of control | dose: 150.0 mg/kg/injection, schedule: Q01DX009 (ip), vehicle: Klucel (hydroxypropylcellulose) (HPC) 93 % of control | dose: 150.0 mg/kg/injection, schedule: Q04DX003 (ip), vehicle: Klucel (hydroxypropylcellulose) (HPC) 98 % of control | dose: 300.0 mg/kg/injection, schedule: Q04DX003 (ip), vehicle: Klucel (hydroxypropylcellulose) (HPC) 91 % of control

C[CH2][Sn](/[CH]=C/C(C)(C)O)([CH2]C)[CH2]C
inactive: [7] 102 % of control | [15] 102 % of control

CC(C)(C)N1CC(C(=O)c2ccccc2)C1c1ccc([N+](=O)[O-])cc1 (centres undefined)
inactive: [2] 96 % of control | [4] 104 % of control
